From US12479847B2 (DANA-FARBER CANCER INSTITUTE, INC., priority 2019, dated 2025)

Assays:
Experiment in all cases: KINOMEscan (ScanMAX) kinase profiling
Assay type in all cases: binding
[1] = biological target: T1, panel of 468 kinases (Homo sapiens, UniProt Q6ZN16); conditions: MAP3K15; 1 μM; read-out: % control
T1 construct: purchased KINOMEscan (ScanMAX) service
T1 sequence (Q6ZN16 1-1313): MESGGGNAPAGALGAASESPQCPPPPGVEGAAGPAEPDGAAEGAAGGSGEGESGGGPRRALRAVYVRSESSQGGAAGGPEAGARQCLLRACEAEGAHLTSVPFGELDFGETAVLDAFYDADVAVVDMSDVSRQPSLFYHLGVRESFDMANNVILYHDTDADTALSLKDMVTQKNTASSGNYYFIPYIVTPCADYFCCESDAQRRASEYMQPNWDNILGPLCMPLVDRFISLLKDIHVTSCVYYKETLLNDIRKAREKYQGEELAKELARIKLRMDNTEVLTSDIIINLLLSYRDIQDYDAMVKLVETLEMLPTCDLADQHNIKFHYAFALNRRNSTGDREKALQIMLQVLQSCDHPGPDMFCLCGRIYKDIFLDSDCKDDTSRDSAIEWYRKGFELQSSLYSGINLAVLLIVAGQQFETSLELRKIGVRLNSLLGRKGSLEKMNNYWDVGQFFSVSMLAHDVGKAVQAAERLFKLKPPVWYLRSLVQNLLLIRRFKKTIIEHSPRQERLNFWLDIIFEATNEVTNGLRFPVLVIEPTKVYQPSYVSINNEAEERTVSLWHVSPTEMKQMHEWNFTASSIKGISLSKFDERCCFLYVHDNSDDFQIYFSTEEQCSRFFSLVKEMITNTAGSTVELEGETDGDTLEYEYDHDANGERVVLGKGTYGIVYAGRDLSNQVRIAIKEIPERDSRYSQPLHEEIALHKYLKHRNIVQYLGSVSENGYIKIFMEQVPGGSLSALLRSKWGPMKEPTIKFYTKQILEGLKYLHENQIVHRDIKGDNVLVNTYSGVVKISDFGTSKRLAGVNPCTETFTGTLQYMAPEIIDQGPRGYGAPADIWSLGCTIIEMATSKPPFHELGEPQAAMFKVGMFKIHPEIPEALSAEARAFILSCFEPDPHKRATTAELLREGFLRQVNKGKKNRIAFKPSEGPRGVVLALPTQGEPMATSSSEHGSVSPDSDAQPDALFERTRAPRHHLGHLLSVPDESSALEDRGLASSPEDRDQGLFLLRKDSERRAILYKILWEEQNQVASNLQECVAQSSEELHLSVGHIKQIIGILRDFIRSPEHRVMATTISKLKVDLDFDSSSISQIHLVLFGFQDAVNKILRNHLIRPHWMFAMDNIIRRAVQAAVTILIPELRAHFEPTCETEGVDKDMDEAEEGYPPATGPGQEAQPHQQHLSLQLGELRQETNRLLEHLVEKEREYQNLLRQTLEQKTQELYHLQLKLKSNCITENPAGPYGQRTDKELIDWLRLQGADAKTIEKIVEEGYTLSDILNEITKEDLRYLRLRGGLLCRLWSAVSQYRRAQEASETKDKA

[2] = biological target: T2, panel of 468 kinases (Homo sapiens, UniProt Q14164); conditions: IKK-epsilon; 1 μM; read-out: % control
T2 construct: purchased KINOMEscan (ScanMAX) service
T2 sequence (Q14164 1-716): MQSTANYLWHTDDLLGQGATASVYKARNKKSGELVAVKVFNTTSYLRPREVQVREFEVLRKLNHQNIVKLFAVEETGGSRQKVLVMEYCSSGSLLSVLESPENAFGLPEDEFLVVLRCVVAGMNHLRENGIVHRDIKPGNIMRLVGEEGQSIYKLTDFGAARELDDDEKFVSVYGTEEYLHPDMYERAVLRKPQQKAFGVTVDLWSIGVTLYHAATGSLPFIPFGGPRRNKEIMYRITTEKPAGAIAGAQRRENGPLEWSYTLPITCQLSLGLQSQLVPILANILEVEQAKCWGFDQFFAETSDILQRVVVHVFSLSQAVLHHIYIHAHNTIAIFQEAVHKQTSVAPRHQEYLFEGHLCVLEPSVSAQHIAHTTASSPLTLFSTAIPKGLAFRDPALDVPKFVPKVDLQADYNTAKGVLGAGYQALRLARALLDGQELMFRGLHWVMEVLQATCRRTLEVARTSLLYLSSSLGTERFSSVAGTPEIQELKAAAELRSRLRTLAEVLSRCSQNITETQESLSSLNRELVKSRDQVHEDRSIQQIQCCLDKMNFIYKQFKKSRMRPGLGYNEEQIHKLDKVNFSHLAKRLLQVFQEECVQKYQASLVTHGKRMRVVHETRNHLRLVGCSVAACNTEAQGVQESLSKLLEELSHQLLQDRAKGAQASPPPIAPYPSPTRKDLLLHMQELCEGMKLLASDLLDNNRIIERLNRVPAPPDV

[3] = biological target: T3, panel of 468 kinases (Plasmodium falciparum, UniProt P61075); conditions: PFPK5(P.falciparum); 1 μM; read-out: % control
T3 construct: purchased KINOMEscan (ScanMAX) service
T3 sequence (P61075 whole entry): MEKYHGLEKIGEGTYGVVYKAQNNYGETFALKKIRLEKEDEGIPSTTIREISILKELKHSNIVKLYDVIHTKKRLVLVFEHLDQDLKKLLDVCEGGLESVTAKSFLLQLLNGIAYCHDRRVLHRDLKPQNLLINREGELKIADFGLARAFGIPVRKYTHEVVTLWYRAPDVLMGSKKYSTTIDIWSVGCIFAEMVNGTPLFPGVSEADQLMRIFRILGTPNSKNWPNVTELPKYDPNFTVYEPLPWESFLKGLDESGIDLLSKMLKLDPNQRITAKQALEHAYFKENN

[4] = biological target: T4, panel of 468 kinases (Homo sapiens, UniProt P11362); conditions: FGFR1; 1 μM; read-out: % control
T4 construct: purchased KINOMEscan (ScanMAX) service

[5] = biological target: T5, panel of 468 kinases (Homo sapiens, UniProt P48736); conditions: PIK3CG; 1 μM; read-out: % control
T5 construct: purchased KINOMEscan (ScanMAX) service
T5 sequence (P48736 whole entry): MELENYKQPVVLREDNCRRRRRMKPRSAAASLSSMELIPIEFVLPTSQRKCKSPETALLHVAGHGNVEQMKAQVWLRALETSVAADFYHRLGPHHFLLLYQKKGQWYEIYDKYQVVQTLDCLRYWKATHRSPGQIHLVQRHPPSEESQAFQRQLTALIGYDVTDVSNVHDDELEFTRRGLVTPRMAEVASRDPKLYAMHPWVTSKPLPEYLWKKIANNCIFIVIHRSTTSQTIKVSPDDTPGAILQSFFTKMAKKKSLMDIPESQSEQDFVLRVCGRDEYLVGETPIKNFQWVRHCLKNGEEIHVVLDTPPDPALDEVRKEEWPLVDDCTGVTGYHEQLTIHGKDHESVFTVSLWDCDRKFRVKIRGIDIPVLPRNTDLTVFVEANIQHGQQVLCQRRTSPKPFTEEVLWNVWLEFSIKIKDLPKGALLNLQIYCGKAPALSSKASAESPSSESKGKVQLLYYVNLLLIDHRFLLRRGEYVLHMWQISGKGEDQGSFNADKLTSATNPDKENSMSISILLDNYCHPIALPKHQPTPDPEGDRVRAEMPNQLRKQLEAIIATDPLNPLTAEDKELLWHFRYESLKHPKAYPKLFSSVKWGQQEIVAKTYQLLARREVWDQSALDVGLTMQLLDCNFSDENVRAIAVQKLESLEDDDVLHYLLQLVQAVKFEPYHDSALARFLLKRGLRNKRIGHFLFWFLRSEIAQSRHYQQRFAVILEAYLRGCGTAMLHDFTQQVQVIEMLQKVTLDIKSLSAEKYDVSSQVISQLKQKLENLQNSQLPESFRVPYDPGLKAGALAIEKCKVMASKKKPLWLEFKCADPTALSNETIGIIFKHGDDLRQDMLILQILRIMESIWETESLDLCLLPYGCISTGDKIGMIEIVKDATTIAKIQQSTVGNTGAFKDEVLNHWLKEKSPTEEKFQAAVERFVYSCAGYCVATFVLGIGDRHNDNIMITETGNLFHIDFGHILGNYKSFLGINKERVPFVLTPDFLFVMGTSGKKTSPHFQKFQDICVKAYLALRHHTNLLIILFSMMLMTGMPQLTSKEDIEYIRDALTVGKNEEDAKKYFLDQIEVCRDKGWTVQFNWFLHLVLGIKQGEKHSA

[6] = biological target: T6, panel of 468 kinases (Homo sapiens, UniProt Q9Y2H1); conditions: NDR2; 1 μM; read-out: % control
T6 construct: purchased KINOMEscan (ScanMAX) service
T6 sequence (Q9Y2H1 whole entry): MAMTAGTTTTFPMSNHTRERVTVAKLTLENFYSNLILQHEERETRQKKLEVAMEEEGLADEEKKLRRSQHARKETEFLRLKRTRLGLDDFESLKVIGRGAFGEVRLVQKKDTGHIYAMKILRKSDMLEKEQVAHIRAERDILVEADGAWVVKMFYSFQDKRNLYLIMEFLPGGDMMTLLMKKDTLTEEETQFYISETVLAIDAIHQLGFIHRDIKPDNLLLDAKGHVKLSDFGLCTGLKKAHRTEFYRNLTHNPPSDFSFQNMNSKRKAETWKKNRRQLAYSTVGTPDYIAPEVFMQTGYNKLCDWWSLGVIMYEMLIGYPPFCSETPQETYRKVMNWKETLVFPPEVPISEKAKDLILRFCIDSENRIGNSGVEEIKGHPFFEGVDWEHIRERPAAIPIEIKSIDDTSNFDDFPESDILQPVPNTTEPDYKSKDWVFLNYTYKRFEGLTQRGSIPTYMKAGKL

[7] = biological target: T7, panel of 468 kinases (Homo sapiens, UniProt O43353); conditions: RIPK2; 1 μM; read-out: % control
T7 construct: purchased KINOMEscan (ScanMAX) service
T7 sequence (O43353 whole entry): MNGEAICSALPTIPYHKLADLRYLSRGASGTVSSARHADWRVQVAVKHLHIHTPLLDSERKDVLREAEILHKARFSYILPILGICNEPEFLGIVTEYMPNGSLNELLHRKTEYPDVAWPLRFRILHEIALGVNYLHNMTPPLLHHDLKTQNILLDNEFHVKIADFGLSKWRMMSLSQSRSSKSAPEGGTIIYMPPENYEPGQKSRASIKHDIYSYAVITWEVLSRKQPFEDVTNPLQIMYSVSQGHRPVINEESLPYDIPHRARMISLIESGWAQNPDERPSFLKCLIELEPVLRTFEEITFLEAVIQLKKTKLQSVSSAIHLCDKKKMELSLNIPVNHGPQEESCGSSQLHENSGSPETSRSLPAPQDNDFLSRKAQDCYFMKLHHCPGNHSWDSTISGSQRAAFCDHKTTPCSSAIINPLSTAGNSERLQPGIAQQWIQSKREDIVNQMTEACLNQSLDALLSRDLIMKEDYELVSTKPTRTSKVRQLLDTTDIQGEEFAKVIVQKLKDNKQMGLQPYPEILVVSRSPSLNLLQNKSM

[8] = biological target: T8, panel of 468 kinases (Mycobacterium tuberculosis, UniProt P9WI81); conditions: read-out: % control
T8 construct: purchased KINOMEscan (ScanMAX) service
T8 sequence (P9WI81 whole entry): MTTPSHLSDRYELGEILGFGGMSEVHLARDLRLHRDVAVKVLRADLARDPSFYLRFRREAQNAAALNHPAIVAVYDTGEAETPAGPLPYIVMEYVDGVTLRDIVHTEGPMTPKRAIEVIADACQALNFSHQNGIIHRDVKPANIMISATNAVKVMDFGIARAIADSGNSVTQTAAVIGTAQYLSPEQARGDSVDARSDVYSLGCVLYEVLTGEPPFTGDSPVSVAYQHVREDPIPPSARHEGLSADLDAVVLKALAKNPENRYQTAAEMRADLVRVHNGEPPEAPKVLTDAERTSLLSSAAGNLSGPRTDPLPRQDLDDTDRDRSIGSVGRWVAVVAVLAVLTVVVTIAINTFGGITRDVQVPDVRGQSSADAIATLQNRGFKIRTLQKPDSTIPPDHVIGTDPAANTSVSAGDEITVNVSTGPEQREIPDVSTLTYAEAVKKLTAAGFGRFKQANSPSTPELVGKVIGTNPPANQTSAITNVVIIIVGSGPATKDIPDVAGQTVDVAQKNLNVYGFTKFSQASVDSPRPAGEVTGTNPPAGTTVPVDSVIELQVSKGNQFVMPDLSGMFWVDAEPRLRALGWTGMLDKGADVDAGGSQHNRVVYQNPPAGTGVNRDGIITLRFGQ

[9] = biological target: T9, panel of 468 kinases (Homo sapiens, UniProt Q9P2K8, S808G); conditions: GCN2(Kin.Dom.2,S808G); 1 μM; read-out: % control
T9 construct: purchased KINOMEscan (ScanMAX) service
T9 sequence (Q9P2K8 whole entry S808G): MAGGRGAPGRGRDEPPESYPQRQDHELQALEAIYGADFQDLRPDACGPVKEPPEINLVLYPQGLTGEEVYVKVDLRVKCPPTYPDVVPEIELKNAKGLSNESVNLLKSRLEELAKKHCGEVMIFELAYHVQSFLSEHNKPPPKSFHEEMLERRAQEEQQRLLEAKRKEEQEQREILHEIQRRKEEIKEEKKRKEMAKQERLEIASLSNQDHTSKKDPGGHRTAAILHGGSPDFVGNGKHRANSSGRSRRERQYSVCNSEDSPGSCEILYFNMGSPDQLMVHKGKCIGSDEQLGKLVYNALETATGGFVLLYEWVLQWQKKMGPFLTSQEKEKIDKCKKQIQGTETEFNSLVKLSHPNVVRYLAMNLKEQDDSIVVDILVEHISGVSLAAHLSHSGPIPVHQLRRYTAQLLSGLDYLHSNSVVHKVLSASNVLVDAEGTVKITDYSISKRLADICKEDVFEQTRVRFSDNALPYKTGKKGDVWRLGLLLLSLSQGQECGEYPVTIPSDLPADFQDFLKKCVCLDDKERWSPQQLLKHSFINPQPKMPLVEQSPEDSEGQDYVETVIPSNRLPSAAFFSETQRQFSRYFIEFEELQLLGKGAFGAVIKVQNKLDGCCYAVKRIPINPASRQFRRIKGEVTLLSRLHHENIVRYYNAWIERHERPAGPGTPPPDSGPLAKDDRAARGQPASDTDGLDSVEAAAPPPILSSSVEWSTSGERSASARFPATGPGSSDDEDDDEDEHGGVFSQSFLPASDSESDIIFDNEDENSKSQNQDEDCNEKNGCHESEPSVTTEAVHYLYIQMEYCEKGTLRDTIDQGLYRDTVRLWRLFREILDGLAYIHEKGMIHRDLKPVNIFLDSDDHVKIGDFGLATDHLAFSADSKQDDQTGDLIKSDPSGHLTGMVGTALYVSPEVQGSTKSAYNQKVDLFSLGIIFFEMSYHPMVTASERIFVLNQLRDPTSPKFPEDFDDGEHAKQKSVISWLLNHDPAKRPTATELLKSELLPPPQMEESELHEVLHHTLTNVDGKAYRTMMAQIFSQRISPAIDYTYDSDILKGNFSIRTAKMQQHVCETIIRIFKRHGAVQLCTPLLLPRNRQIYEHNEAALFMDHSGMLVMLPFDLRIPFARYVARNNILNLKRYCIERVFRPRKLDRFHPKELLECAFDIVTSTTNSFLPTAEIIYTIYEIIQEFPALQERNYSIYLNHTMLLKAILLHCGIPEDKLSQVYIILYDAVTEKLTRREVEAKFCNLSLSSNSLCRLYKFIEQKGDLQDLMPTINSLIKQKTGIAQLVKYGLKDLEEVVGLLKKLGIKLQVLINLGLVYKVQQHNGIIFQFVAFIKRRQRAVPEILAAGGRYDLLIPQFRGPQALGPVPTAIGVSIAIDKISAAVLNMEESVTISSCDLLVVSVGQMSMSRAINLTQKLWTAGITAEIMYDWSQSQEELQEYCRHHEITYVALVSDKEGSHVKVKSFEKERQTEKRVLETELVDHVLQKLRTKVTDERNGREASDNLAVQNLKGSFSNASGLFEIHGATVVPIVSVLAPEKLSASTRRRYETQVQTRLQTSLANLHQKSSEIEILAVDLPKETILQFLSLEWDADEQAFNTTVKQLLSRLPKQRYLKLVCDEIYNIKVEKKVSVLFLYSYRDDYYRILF

Row | SMILES | remaining binding at 1 µM [1] [%] | remaining binding at 1 µM [2] [%] | remaining binding at 1 µM [3] [%] | remaining binding at 1 µM [4] [%] | remaining binding at 1 µM [5] [%] | remaining binding at 1 µM [6] [%] | remaining binding at 1 µM [7] [%] | remaining binding at 1 µM [8] [%] | remaining binding at 1 µM [9] [%]
1 | CNc1nc(Nc2ccc(S(=O)(=O)N3CCC(N4CCOCC4)CC3)cc2OC)nc2[nH]cc(Cl)c12 [Compound 12, 5-chloro-N2-(2-methoxy-4-((4-morpholinopiperidin-1-yl)sulfonyl)phenyl)-N4-methyl-7H-pyrrolo[2,3-d]pyrimidine-2,4-diamine] | 75 | 98 | 64 | 89 | 95 | 100 | 100 | 93 | 88
2 | CNc1nc(Nc2ccc(C(=O)N3CCC(N4CCOCC4)CC3)c3c2OCO3)nc2[nH]cc(Cl)c12 [Compound 75, (7-((5-chloro-4-(methylamino)-7H-pyrrolo[2,3-d]pyrimidin-2-yl)amino)benzo[d][1,3]dioxol-4-yl)(4-morpholinopiperidin-1-yl)methanone] | 39 | 47 | 65 | 94 | 100 | 100 | 100 | 68 | 31
3 | CNc1nc(Nc2ccc(P3(=O)CCN(C4CCOCC4)CC3)cc2OC)nc2[nH]cc(Cl)c12 [Compound 77, 4-(4-((5-chloro-4-(methylamino)-7H-pyrrolo[2,3-d]pyrimidin-2-yl)amino)-3-methoxyphenyl)-1-(tetrahydro-2H-pyran-4-yl)-1,4-azaphosphinane 4-oxide] | 46 | 89 | 75 | 100 | 100 | 100 | 100 | 100 | 78
